Values quoted from earlier work in US20120202839A1, “METHODS AND COMPOSITIONS FOR DETERRING ABUSE OF ORALLY ADMINISTERED PHARMACEUTICAL PRODUCTS” (priority 2004, published 2012).

Conditions: oral ingestion; typical threshold

Structure (SMILES): O=S(=O)([O-])[O-].[Zn+2] [ZINC SULFATE]
- amount ingested above which emesis is induced, typically: more than 0.6 gm
